Data taken from PMC3601769 (Bioorganic & medicinal chemistry letters, 2013).

tested on: tubulin (colchicine site); assay: Inhibition of colchicine binding to tubulin

Inhibition of colchicine binding (% inhibition ± SD) at 5 μM inhibitor | SMILES
inactive | CCOC(=O)c1cccc(Nc2nc(-c3ccc(OC)cc3)no2)c1 [DCP 10500035]
inactive | Fc1ccccc1Nc1nc(-c2ccccc2)no1 [DCP 10500060]
inactive | COc1ccc(OC)c(Nc2nc(-c3cccc(OC)c3OC)no2)c1 [DCP 10500070]
